The NIST ThermoML archive (doi:10.1016/j.jct.2010.07.016)
± gives the expanded uncertainty stated by the source.

What was measured:
[1] = excess molar enthalpy (molar enthalpy of mixing); xn = mol fraction of the nth substance listed; details: 308.15 K, 101 kPa, Liquid, Drop calorimeter
[2] = xn = mol fraction of the nth substance listed; details: 308.15 K, 101 kPa, Liquid; for excess molar volume: Direct dilatometry; for speed of sound: Linear variable-path acoustic interferometer

C1CCOCC1 [tetrahydropyran] + Cc1ccc(C)cc1
Details	excess molar enthalpy [kcal/mol]	excess molar volume [m3/mol]	speed of sound [m/s]
[1], x1 = 0.0804	-0.00684 ± 0.000263	–	–
[1], x1 = 0.1402	-0.0127 ± 0.000359	–	–
[1], x1 = 0.2416	-0.0226 ± 0.00055	–	–
[1], x1 = 0.3002	-0.0274 ± 0.000669	–	–
[1], x1 = 0.3842	-0.0325 ± 0.000765	–	–
[1], x1 = 0.4706	-0.0349 ± 0.000813	–	–
[1], x1 = 0.5776	-0.0335 ± 0.000789	–	–
[1], x1 = 0.6454	-0.0302 ± 0.000717	–	–
[1], x1 = 0.6914	-0.0271 ± 0.000645	–	–
[1], x1 = 0.7432	-0.0228 ± 0.000574	–	–
[1], x1 = 0.7919	-0.0183 ± 0.000478	–	–
[1], x1 = 0.8476	-0.0129 ± 0.000359	–	–
[1], x1 = 0.9021	-0.0077 ± 0.000263	–	–
[1], x1 = 0.9415	-0.00423 ± 0.000215	–	–
[2], x1 = 0.0639	–	-2.2e-08 ± 2e-09	–
[2], x1 = 0.0784	–	–	1271 ± 3
[2], x1 = 0.1503	–	-4.3e-08 ± 2e-09	–
[2], x1 = 0.1521	–	–	1267 ± 3
[2], x1 = 0.2123	–	–	1263 ± 3
[2], x1 = 0.2321	–	-5.5e-08 ± 2e-09	–
[2], x1 = 0.2835	–	-5.9e-08 ± 2e-09	–
[2], x1 = 0.2876	–	–	1258 ± 3
[2], x1 = 0.3331	–	-6.1e-08 ± 2e-09	–
[2], x1 = 0.3342	–	–	1255 ± 3
[2], x1 = 0.3832	–	-6.1e-08 ± 2e-09	–
[2], x1 = 0.4091	–	–	1251 ± 3
[2], x1 = 0.4421	–	-6e-08 ± 2e-09	–
[2], x1 = 0.4953	–	–	1247 ± 3
[2], x1 = 0.5127	–	-5.7e-08 ± 2e-09	–
[2], x1 = 0.5186	–	–	1245 ± 3
[2], x1 = 0.5515	–	-5.4e-08 ± 2e-09	–
[2], x1 = 0.5684	–	–	1243 ± 3
[2], x1 = 0.6027	–	-4.9e-08 ± 2e-09	–
[2], x1 = 0.6175	–	–	1241 ± 3
[2], x1 = 0.6529	–	-4.4e-08 ± 2e-09	–
[2], x1 = 0.7077	–	–	1237 ± 3
[2], x1 = 0.7211	–	-3.6e-08 ± 2e-09	–
[2], x1 = 0.7905	–	-2.7e-08 ± 2e-09	–
[2], x1 = 0.7909	–	–	1233 ± 3
[2], x1 = 0.8666	–	–	1230 ± 3
[2], x1 = 0.8673	–	-1.7e-08 ± 2e-09	–
[2], x1 = 0.9354	–	–	1227 ± 3

C1CCOCC1 [tetrahydropyran] + Cc1ccccc1
Details	excess molar enthalpy [kcal/mol]	excess molar volume [m3/mol]	speed of sound [m/s]
[1], x1 = 0.0445	-0.00681 ± 0.000263	–	–
[1], x1 = 0.0662	-0.0102 ± 0.000311	–	–
[1], x1 = 0.0837	-0.0129 ± 0.000359	–	–
[1], x1 = 0.1138	-0.0176 ± 0.000454	–	–
[1], x1 = 0.2154	-0.0324 ± 0.000765	–	–
[1], x1 = 0.2806	-0.0403 ± 0.000932	–	–
[1], x1 = 0.3031	-0.0427 ± 0.00098	–	–
[1], x1 = 0.397	-0.0502 ± 0.00112	–	–
[1], x1 = 0.5319	-0.0532 ± 0.0012	–	–
[1], x1 = 0.6305	-0.0492 ± 0.00112	–	–
[1], x1 = 0.7413	-0.0389 ± 0.000908	–	–
[1], x1 = 0.8325	-0.0268 ± 0.000645	–	–
[1], x1 = 0.9352	-0.0106 ± 0.000335	–	–
[1], x1 = 0.9727	-0.00447 ± 0.000215	–	–
[2], x1 = 0.0554	–	-3.1e-08 ± 2e-09	–
[2], x1 = 0.0673	–	-3.7e-08 ± 2e-09	–
[2], x1 = 0.085	–	-4.6e-08 ± 2e-09	–
[2], x1 = 0.0925	–	–	1259 ± 3
[2], x1 = 0.1343	–	–	1258 ± 3
[2], x1 = 0.1534	–	-7.9e-08 ± 2e-09	–
[2], x1 = 0.1789	–	–	1257 ± 3
[2], x1 = 0.1861	–	-9.2e-08 ± 2e-09	–
[2], x1 = 0.2311	–	-1.1e-07 ± 3e-09	–
[2], x1 = 0.2587	–	–	1256 ± 3
[2], x1 = 0.2942	–	-1.29e-07 ± 3e-09	–
[2], x1 = 0.3742	–	–	1254 ± 3
[2], x1 = 0.4109	–	-1.53e-07 ± 3e-09	–
[2], x1 = 0.4263	–	–	1253 ± 3
[2], x1 = 0.4815	–	–	1251 ± 3
[2], x1 = 0.5187	–	–	1250 ± 3
[2], x1 = 0.5273	–	-1.59e-07 ± 3e-09	–
[2], x1 = 0.5795	–	–	1248 ± 3
[2], x1 = 0.6433	–	-1.46e-07 ± 3e-09	–
[2], x1 = 0.6765	–	–	1243 ± 3
[2], x1 = 0.7122	–	–	1242 ± 3
[2], x1 = 0.7215	–	-1.27e-07 ± 3e-09	–
[2], x1 = 0.7646	–	–	1239 ± 3
[2], x1 = 0.8202	–	-9.3e-08 ± 2e-09	–
[2], x1 = 0.8487	–	–	1234 ± 3
[2], x1 = 0.9252	–	–	1229 ± 3
[2], x1 = 0.9297	–	-4e-08 ± 2e-09	–
[2], x1 = 0.9735	–	-1.6e-08 ± 2e-09	–

Cc1cccc(C)c1 [1,3-dimethylbenzene] + C1CCOCC1
Details	excess molar enthalpy [kcal/mol]	excess molar volume [m3/mol]	speed of sound [m/s]
[1], x2 = 0.0474	-0.00437 ± 0.000215	–	–
[1], x2 = 0.086	-0.0071 ± 0.000263	–	–
[1], x2 = 0.1141	-0.00863 ± 0.000287	–	–
[1], x2 = 0.1754	-0.0107 ± 0.000335	–	–
[1], x2 = 0.26	-0.011 ± 0.000335	–	–
[1], x2 = 0.3488	-0.00872 ± 0.000287	–	–
[1], x2 = 0.4432	-0.00416 ± 0.000215	–	–
[1], x2 = 0.4765	-0.0022 ± 0.000215	–	–
[1], x2 = 0.5624	0.00311 ± 0.000215	–	–
[1], x2 = 0.6834	0.00978 ± 0.000311	–	–
[1], x2 = 0.7603	0.0122 ± 0.000359	–	–
[1], x2 = 0.8001	0.0126 ± 0.000359	–	–
[1], x2 = 0.8744	0.0112 ± 0.000335	–	–
[1], x2 = 0.9453	0.00643 ± 0.000263	–	–
[2], x2 = 0.0626	–	-6e-09 ± 2e-09	–
[2], x2 = 0.0923	–	–	1277 ± 3
[2], x2 = 0.1258	–	-1.2e-08 ± 2e-09	–
[2], x2 = 0.1515	–	–	1273 ± 3
[2], x2 = 0.1731	–	-1.7e-08 ± 2e-09	–
[2], x2 = 0.2161	–	–	1269 ± 3
[2], x2 = 0.2459	–	-2.2e-08 ± 2e-09	–
[2], x2 = 0.285	–	–	1264 ± 3
[2], x2 = 0.3278	–	–	1261 ± 3
[2], x2 = 0.3452	–	-2.8e-08 ± 2e-09	–
[2], x2 = 0.3611	–	–	1259 ± 3
[2], x2 = 0.4081	–	–	1256 ± 3
[2], x2 = 0.4411	–	-3.2e-08 ± 2e-09	–
[2], x2 = 0.4621	–	–	1253 ± 3
[2], x2 = 0.4801	–	-3.2e-08 ± 2e-09	–
[2], x2 = 0.5179	–	–	1250 ± 3
[2], x2 = 0.5413	–	-3.2e-08 ± 2e-09	–
[2], x2 = 0.5568	–	–	1248 ± 3
[2], x2 = 0.6033	–	-3.2e-08 ± 2e-09	–
[2], x2 = 0.6179	–	–	1244 ± 3
[2], x2 = 0.6541	–	-3e-08 ± 2e-09	–
[2], x2 = 0.7078	–	–	1239 ± 3
[2], x2 = 0.7113	–	-2.7e-08 ± 2e-09	–
[2], x2 = 0.7852	–	-2.2e-08 ± 2e-09	–
[2], x2 = 0.7889	–	–	1235 ± 3
[2], x2 = 0.8646	–	–	1231 ± 3
[2], x2 = 0.8934	–	-1.2e-08 ± 2e-09	–
[2], x2 = 0.9229	–	-9e-09 ± 2e-09	–
